Assay results reported in the NIST ThermoML archive (doi:10.1016/j.fluid.2005.03.030).
Numbers after ± are expanded uncertainties.

Test: xn = mol fraction of the nth substance listed
Conditions: Liquid, Falling body viscometer

COCCOCCOCCOCCOC [2,5,8,11,14-pentaoxapentadecane] + FCC(F)(F)F
viscosity [mPa·s]
Conditions	10000 kPa	20000 kPa	30000 kPa	40000 kPa	50000 kPa	60000 kPa	70000 kPa	80000 kPa	90000 kPa	100000 kPa
333.15 K, x2 = 0.2769	–	–	–	–	–	2.086 ± 0.029	2.236 ± 0.031	2.391 ± 0.034	2.549 ± 0.036	2.712 ± 0.039
333.15 K, x2 = 0.4433	–	–	–	–	–	1.624 ± 0.022	1.741 ± 0.023	1.861 ± 0.025	1.984 ± 0.027	2.111 ± 0.029
333.15 K, x2 = 0.6333	–	–	–	–	–	1.173 ± 0.015	1.26 ± 0.016	1.349 ± 0.017	1.438 ± 0.019	1.529 ± 0.02
333.15 K, x2 = 0.8797	–	–	–	–	–	0.522 ± 0.006	0.561 ± 0.006	0.6 ± 0.007	0.64 ± 0.007	0.681 ± 0.008
353.15 K, x2 = 0.2769	1.038 ± 0.013	1.133 ± 0.015	1.229 ± 0.016	1.328 ± 0.017	1.431 ± 0.018	1.539 ± 0.02	1.653 ± 0.021	1.773 ± 0.022	1.9 ± 0.024	2.035 ± 0.026
353.15 K, x2 = 0.4433	0.834 ± 0.01	0.908 ± 0.011	0.984 ± 0.012	1.064 ± 0.013	1.147 ± 0.014	1.233 ± 0.015	1.323 ± 0.016	1.415 ± 0.017	1.51 ± 0.019	1.609 ± 0.02
353.15 K, x2 = 0.6333	0.609 ± 0.007	0.665 ± 0.008	0.725 ± 0.009	0.788 ± 0.009	0.854 ± 0.01	0.921 ± 0.011	0.99 ± 0.012	1.061 ± 0.013	1.132 ± 0.013	1.205 ± 0.014
353.15 K, x2 = 0.8797	0.256 ± 0.003	0.299 ± 0.004	0.336 ± 0.004	0.37 ± 0.004	0.404 ± 0.005	0.436 ± 0.005	0.469 ± 0.005	0.501 ± 0.006	0.533 ± 0.006	0.565 ± 0.006
373.15 K, x2 = 0.2769	0.832 ± 0.01	0.907 ± 0.011	0.986 ± 0.012	1.069 ± 0.013	1.156 ± 0.014	1.247 ± 0.015	1.342 ± 0.016	1.441 ± 0.018	1.545 ± 0.019	1.654 ± 0.02
373.15 K, x2 = 0.4433	0.662 ± 0.008	0.72 ± 0.009	0.783 ± 0.01	0.85 ± 0.01	0.921 ± 0.011	0.994 ± 0.012	1.069 ± 0.013	1.147 ± 0.014	1.226 ± 0.015	1.307 ± 0.016
373.15 K, x2 = 0.6333	0.471 ± 0.006	0.524 ± 0.007	0.577 ± 0.007	0.631 ± 0.008	0.685 ± 0.008	0.739 ± 0.009	0.794 ± 0.01	0.849 ± 0.01	0.904 ± 0.011	0.96 ± 0.012
373.15 K, x2 = 0.8797	0.195 ± 0.003	0.234 ± 0.003	0.268 ± 0.003	0.3 ± 0.004	0.33 ± 0.004	0.36 ± 0.004	0.39 ± 0.005	0.419 ± 0.005	0.448 ± 0.005	0.478 ± 0.005
